No end group written: not given here.
Tests used:
Candida albicans 105 = type: cell-based; details: Table 15; in µg/mL
E. coli UB1005 = type: cell-based, Escherichia coli; details: Table 14
[1] = system: Pseudomonas aeruginosa H187; type: cell-based; details: Table 15; in µg/mL
S. typhimurium 14028S = type: cell-based, Salmonella typhimurium; details: Table 14
P. aeruginosa H374 = type: cell-based, Pseudomonas aeruginosa; details: Table 14; in µg/mL
S. aureus (MRSA) = type: cell-based, Staphylococcus aureus; details: Table 15, strain SAP0017; in µg/mL
S. epidermidis C621 = type: cell-based, Staphylococcus epidermidis; details: Table 15
[2] = system: human leukocyte (WBC) cells; test: Stimulation and proliferation of leukocytes, Alamar Blue; type: cell-based; details: compared to untreated positive control cells; Alamar Blue
[3] = system: human red blood cells (RBC); test: in vitro; type: cell-based; details: hemolytic assay, concentration at 50% hemolysis, 1 hour at 37° C.
PC3 = test: Anti-cancer assay, MTT, LD50; type: cell-based; details: 24 hours with peptide, prostate adenocarcinoma
From the text: (§1) Numbers are LD50 values (μg/mL).

HeLaS3 = test: Anti-cancer assay, MTT, LD50; type: cell-based; details: 24 hours with peptide, cervical carcinoma
From the text: as §1

BMKC = test: Anti-cancer assay, MTT, LD50; type: cell-based; details: BMKC cloned melanoma line, 24 hours with peptide
From the text: as §1

SW480 = test: Anti-cancer assay, MTT, LD50; type: cell-based; details: SW480 colon adenocarcinoma line, 24 hours with peptide
From the text: as §1

MCF7 = test: Anti-cancer assay, MTT, LD50; type: cell-based; details: MCF7 breast adenocarcinoma line, MTT, 24 hours with peptide
From the text: as §1

H1299 = test: Anti-cancer assay, MTT, LD50; type: cell-based; details: 24 hours with peptide, lung large cell carcinoma
From the text: as §1

[4] = system: Pseudomonas aeruginosa ATCC 9027; test: Antimicrobial assay I, MIC by OD measurement; type: cell-based; details: 37° C. for 24 hours, absorbance 620 nm
[5] = system: Staphylococcus aureus ATCC 6538; test: Antimicrobial assay I, MIC by OD measurement; type: cell-based; details: 37° C. for 24 hours, absorbance 620 nm
[6] = system: yeast (Saccharomyces cerevisiae); test: Antimicrobial assay I, yeast assay in RPMI 1640; type: cell-based; details: RPMI 1640 media
WI38 = details: MTT, 24 hours with peptide

Substance | MIC C. albicans 105 (Candida albicans 105) | MIC E. coli UB1005 (E. coli UB1005) | MIC P. aeruginosa H187 [1] | MIC S. typhimurium 14028S (S. typhimurium 14028S) | MIC P. aeruginosa H374 (P. aeruginosa H374) | MIC S. aureus SAP0017 (S. aureus (MRSA)) | MIC S. epidermidis C621 (S. epidermidis C621) | stimulatory and/or inhibitory action on growth of human leukocyte (WBC) cells [2] | LD50 [3] | PC3 LD50 (PC3) | HeLaS3 LD50 (HeLaS3) | LD50 BMKC (BMKC) | LD50 SW480 (SW480) | LD50 MCF7 (MCF7) | H1299 LD50 (H1299) | paerug9027 (MIC) [4] | staph6538 (MIC) [5] | yeast (MIC or MFC) [6] | WI38 LD50 (WI38; normal fibroblast line) | LD50 WI38 (WI38; WI38 normal lung fibroblast line)
FAFAKIIAKIAKKII-NH2 [P140 (102)] | >128 | > 128 µg/mL | >128 | > 128 µg/mL | >128 | >128 | > 128 µg/mL | – | – | – | – | – | – | – | – | – | – | – | – | –
FAFGKGIGKIGKKGL-NH2 [P138 (100)] | >128 | > 128 µg/mL | >128 | > 128 µg/mL | >128 | >128 | > 128 µg/mL | – | – | – | – | – | – | – | – | – | – | – | – | –
FAFGKGIGKVGKKLL-NH2 [P133 (95)] | >128 | > 128 µg/mL | >128 | > 128 µg/mL | >128 | >128 | > 128 µg/mL | – | – | – | – | – | – | – | – | – | – | – | – | –
FAKAIAKIAFGKGIGKVGKKLL-NH2 [P134 (96)] | 64 | 128 µg/mL | >128 | > 128 µg/mL | 128 | >128 | 128 µg/mL | – | – | – | – | – | – | – | – | – | – | – | – | –
FAKGVGKVGKKAL-NH2 [P137 (99)] | >128 | > 128 µg/mL | >128 | > 128 µg/mL | >128 | >128 | > 128 µg/mL | – | – | – | – | – | – | – | – | – | – | – | – | –
FAKIIAKIAKIAKKIL-NH2 [P139 (101)] | 128 | 64 µg/mL | 128 | > 128 µg/mL | >128 | >128 | 64 µg/mL | – | – | – | – | – | – | – | – | – | – | – | – | –
FAKIIAKIAKKI-NH2 [P143 (105)] | >128 | > 128 µg/mL | >128 | > 128 µg/mL | >128 | >128 | > 128 µg/mL | – | – | – | – | – | – | – | – | – | – | – | – | –
FAKKLAKALL-NH2 [P58 (38)] | 64 | > 128 µg/mL | >128 | > 128 µg/mL | >128 | >128 | > 128 µg/mL | – | – | – | – | – | – | – | – | – | – | – | – | –
FAKKLAKKLAKAAL-NH2 [P76 (52)] | 64 | 16 µg/mL | >128 | 128 µg/mL | 64 | >128 | > 128 µg/mL | – | – | – | – | – | – | – | – | – | – | – | – | –
FAKLA-NH2 [P128 (90)] | 128 | 128 µg/mL | >128 | > 128 µg/mL | >128 | >128 | 128 µg/mL | – | – | – | – | – | – | – | – | – | – | – | – | –
FAKLAKKALAKLL-NH2 [P148 (110)] | 128 | 128 µg/mL | >128 | > 128 µg/mL | >128 | >128 | 128 µg/mL | – | – | – | – | – | – | – | – | – | – | – | – | –
FALALKAKKL-NH2 [P182] | – | – | – | – | – | – | – | stimulatory (and/or proliferative) at all concentrations through 500 μg/ml | > (> indicates greater than 1000) | > (> indicates greater than 1000) | > (> indicates greater than 1000) | > (> indicates greater than 1000) | > (> indicates greater than 1000) | > (> indicates greater than 1000) | > (> indicates greater than 1000) | > (> indicates greater than 200 μg/mL) | > (> indicates greater than 200 μg/mL) | > (> indicates greater than 200 μg/mL) | > (> indicates greater than 1000) | > (> indicates greater than 1000)

Source: US20050209157A1, “Short bioactive peptides and methods for their use” (priority 2001, published 2005)
